Experimental data taken from patent US20220056043A1, “NITROGEN-CONTAINING FUSED CYCLIC COMPOUND, PREPARATION METHOD THEREFOR AND USE THEREOF” (SICHUAN KELUN-BIOTECH BIOPHARMACEUTICAL CO., LTD., priority 2019, published 2022).
Where a name gives a salt, the structure may show the parent alone.

Legend:
hTLR7 = molecular target: T1, hTLR7 (Homo sapiens, UniProt Q9NYK1); assay: Agonistic effect on hTLR7, HEK-hTLR7-NF-κB-Luciferase reporter cells; type: cell-based; settings: 16 hours
T1 construct: host or cells: HEK-hTLR7-NF-κB-Luciferase cells
T1 sequence (Q9NYK1 27-1049): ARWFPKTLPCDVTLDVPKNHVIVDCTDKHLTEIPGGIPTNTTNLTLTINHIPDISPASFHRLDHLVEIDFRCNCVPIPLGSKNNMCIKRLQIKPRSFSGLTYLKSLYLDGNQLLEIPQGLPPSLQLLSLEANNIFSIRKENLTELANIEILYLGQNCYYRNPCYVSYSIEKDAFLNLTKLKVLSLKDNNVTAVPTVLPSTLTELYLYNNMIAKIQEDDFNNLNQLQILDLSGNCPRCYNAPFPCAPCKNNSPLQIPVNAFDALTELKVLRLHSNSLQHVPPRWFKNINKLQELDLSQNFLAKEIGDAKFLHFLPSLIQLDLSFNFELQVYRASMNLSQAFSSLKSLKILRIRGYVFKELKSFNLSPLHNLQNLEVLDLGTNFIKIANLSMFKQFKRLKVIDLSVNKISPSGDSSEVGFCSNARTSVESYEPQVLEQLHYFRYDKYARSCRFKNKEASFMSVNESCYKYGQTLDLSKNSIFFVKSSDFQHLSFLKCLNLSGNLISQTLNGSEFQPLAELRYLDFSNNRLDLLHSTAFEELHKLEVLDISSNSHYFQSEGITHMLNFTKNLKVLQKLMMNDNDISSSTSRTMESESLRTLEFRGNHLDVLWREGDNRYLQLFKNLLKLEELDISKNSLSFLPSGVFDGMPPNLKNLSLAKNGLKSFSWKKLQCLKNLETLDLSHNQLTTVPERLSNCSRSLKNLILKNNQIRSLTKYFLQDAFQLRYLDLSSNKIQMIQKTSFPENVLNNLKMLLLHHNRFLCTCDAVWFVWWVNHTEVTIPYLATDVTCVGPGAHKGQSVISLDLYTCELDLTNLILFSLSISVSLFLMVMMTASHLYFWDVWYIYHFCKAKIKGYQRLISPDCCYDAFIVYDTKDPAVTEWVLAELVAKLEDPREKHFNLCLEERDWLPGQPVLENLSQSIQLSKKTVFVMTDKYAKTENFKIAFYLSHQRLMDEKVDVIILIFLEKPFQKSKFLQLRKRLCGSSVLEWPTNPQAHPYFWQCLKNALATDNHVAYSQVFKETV
Excerpt: Experimental Example 3: Agonistic Effect of the Compound of the Invention on hTLR7
In this test, the luciferase in HEK-hTLR7-NF-κB-reporter cells was detected to test the activating effect of the compound of the invention on TLR7 signaling pathway, so as to evaluate the specificity of the agonistic effect of the compound on NLRP3 pathway.
Reagents: DMEM (High glucose); FBS (fetal bovine serum) (Gibco); Bright-Glo™ Luciferase detection kit (Promega)
Cells: HEK-hTLR7-NF-κB-Luciferase gene cells (human TLR7 NF-κB-luciferase reporter gene cells) (Nanjing Cobioer)
1) The HEK-hTLR7-NF-κB-Luciferase cells in a logarithmic growth phase were trypsinized and resuspended in the medium to a concentration of 2×10^6 cells/mL. 50 μL/well of the cell resuspension was added to a 96-well plate such that the number of cells in each well was […]. An appropriate amount of 10 mM DMSO solution of the compound to be tested was taken and diluted to a concentration of 2× test concentration with the medium. 50 μL/well was added to the cells in the 96-well plate, and the 96-well plate was incubated in an incubator at 37° C. and 5% CO2 for 16 hours. The medium was DMEM (High glucose) containing 10% FBS.
2) After the cell incubation, 100 μL/well of Bright-Glo™ Luciferase detection reagent was added, and the mixture was incubated at room temperature for 5 minutes. Relative luciferase activity unit (RLU) was read using a microplate reader.
3) The EC50 of effect of the tested compound to stimulate hTLR7 was fitted by the GraphPad software log(agonist) vs. response—Variable slope four-parameter method.

hNLRP3 inflammasome = molecular target: T2, hNLRP3 inflammasome (Homo sapiens, UniProt Q96P20); assay: Agonistic effect on the expression of IL-1β in THP-1 cells after PMA-induced differentiation (HTRF); type: cell-based; settings: IL-1β level, PMA-differentiated THP-1 cells, 6 hours
T2 construct: endogenous in cells; host or cells: THP-1 cells, PMA-differentiated
Excerpt: Experimental Example 1: Agonistic Effect of the Compound of the Invention on the Expression of IL-1β in THP-1 Cells after PMA-Induced Differentiation
In this test, a HTRF (homogeneous time-resolved fluorescence) detection method was used to test the effect of the compound of the invention on the level of downstream cytokine IL-1β of NLRP3 to evaluate the agonistic effect of the compound on hNLRP3 inflammasome or hNLRP3 inflammasome pathway at a cellular level.
Reagent: RPMI 1640 (Hyclone); heat-inactivated FBS (fetal bovine serum) (Gibco); PMA (phorbol myristal acetate) (Beyotime)
Kit: IL-1β assay kit (CISIO)
1) THP-1 cells in a logarithmic growth phase were seeded in a T75 culture flask at a density of 5×10^5 cells/well, and cultured in a cell incubator at 37° C., 5% CO2 for 24 hours, and then 1 μM PMA was used to induce THP-1 suspension cells to become adherent macrophages. The medium was RPMI 1640 containing 10% heat-inactivated FBS and 0.05 mM β-mercaptoethanol.
2) The cells were induced and cultured for 24 hours. Then the adherent cells were trypsinized and centrifuged at 1000 rpm for 5 min. The supernatant was removed, and the cells were resuspended to a density of 2×10^6 cells/mL in RPMI 1640 medium containing 2% heat-inactivated FBS. 50 μL/well of cell resuspension was taken and spread on a 96-well plate such that the number of cells in each well was 1×10^5.
3) An appropriate amount of 10 mM DMSO solution of the compound to be tested was taken and diluted to a concentration of 2× test concentration with RPMI 1640 medium containing 2% heat-inactivated FBS. 50 μL/well of the dilution was added to the cells in the 96-well plate, and mixed well. The plate was placed in a cell incubator at 37° C., 5% CO2 for 6 hours. The supernatant was collected, and the level of IL-1β was measured in accordance with the instructions of the IL-1β detection kit.
4) EC50 was fitted by the GraphPad software log(agonist) vs. response—Variable slope four-parameter method.

T2 sequence (Q96P20 whole entry): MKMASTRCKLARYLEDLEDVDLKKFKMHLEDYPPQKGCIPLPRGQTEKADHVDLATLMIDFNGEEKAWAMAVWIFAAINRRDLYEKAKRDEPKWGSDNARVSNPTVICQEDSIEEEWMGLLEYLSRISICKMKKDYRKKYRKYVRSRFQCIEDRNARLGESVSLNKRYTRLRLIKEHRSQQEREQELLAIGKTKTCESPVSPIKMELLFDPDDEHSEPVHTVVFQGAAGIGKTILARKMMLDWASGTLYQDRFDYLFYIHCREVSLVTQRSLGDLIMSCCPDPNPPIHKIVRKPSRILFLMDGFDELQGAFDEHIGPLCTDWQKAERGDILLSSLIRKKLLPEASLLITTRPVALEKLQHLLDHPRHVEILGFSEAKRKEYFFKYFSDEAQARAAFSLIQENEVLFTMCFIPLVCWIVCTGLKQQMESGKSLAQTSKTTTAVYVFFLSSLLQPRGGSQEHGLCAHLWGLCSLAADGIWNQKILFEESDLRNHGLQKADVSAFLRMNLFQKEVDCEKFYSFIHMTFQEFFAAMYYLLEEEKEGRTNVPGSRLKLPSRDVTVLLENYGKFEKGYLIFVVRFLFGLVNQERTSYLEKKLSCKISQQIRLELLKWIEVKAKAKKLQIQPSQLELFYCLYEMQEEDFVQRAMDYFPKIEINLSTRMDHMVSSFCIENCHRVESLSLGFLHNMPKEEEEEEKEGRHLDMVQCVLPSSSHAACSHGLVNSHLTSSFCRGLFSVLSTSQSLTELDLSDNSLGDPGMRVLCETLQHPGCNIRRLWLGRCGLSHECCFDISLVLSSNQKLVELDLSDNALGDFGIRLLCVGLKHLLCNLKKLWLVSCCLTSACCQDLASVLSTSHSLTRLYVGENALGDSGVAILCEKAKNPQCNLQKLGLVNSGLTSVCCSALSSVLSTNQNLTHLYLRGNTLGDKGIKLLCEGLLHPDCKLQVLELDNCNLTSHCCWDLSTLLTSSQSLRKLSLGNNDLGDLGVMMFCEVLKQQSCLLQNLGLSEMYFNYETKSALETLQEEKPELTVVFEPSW

| Structure (SMILES) | EC50 (hTLR7) | EC50 (hNLRP3 inflammasome) |
| --- | --- | --- |
| Nc1cc(N[C@H]2CC[C@H](O)C2)c2sc(-c3ccn[nH]3)cc2n1 [Compound 26, (1S,3S)-3-((5-amino-2-(1H-pyrazol-5-yl)thieno[3,2-b]pyridin-7-yl)amino)cyclopentanol] | > 100000 nM | 0.1 µM |
| Nc1cc(N[C@@H]2CC[C@@H](O)C2)c2sc(-c3ccn[nH]3)cc2n1 [Compound 30s, (1R,3R)-3-((5-amino-2-(1H-pyrazol-5-yl)thieno[3,2-b]pyridin-7-yl)amino)cyclopentanol hydrochloride] | > 100000 nM | 0.02 µM |
| Nc1cc(N[C@@H]2CC[C@H](O)C2)c2sc(-c3ccn[nH]3)cc2n1 [Compound 31, (1S,3R)-3-((5-amino-2-(1H-pyrazol-5-yl)thieno[3,2-b]pyridin-7-yl)amino)cyclopentanol] | > 100000 nM | 0.11 µM |
| C[C@H](O)CNc1cc(N)nc2cc(-c3ccn[nH]3)sc12 [Compound 33] | > 100000 nM | 0.26 µM |
| Nc1cc(NC2CC(O)C2)c2sc(-c3ccn[nH]3)cc2n1 (centres unmarked) [Compound 40, 3-((5-amino-2-(1H-pyrazol-5-yl)thieno[3,2-b]pyridin-7-yl)amino)cyclobutanol] | > 100000 nM | 0.39 µM |
| CN1CC[C@H](Nc2cc(N)nc3cc(-c4ccn[nH]4)sc23)C1 [Compound 51, (S)—N^7-(1-methylpyrrolidin-3-yl)-2-(1H-pyrazol-5-yl)thieno[3,2-b]pyridine-5,7-diamine] | > 100000 nM | 0.33 µM |
| CC(=O)NCCNc1cc(N)nc2cc(-c3ccn[nH]3)sc12 [Compound 52] | > 100000 nM | 0.2 µM |
| CC(=O)NCCCNc1cc(N)nc2cc(-c3ccn[nH]3)sc12 [Compound 53] | > 100000 nM | 0.18 µM |
| CN1CCN(CCCNc2cc(N)nc3cc(-c4ccn[nH]4)sc23)CC1 [Compound 54, N^7-(3-(4-methylpiperazin-1-yl)propyl)-2-(1H-pyrazol-5-yl)thieno[3,2-b]pyridine-5,7-diamine] | > 100000 nM | 0.92 µM |
| Nc1cc(NCCN2CCOCC2)c2sc(-c3ccn[nH]3)cc2n1 [Compound 55, N^7-(2-morpholinoethyl)-2-(1H-pyrazol-5-yl)thieno[3,2-b]pyridine-5,7-diamine] | > 100000 nM | 0.44 µM |
| CN1CCN(CCNc2cc(N)nc3cc(-c4ccn[nH]4)sc23)CC1 [Compound 57, N^7-(2-(4-methylpiperazin-1-yl)ethyl)-2-(1H-pyrazol-5-yl)thieno[3,2-b]pyridine-5,7-diamine] | > 100000 nM | 0.57 µM |
| Nc1cc(NCCCNC(=O)C2CC2)c2sc(-c3ccn[nH]3)cc2n1 [Compound 58] | > 100000 nM | 0.26 µM |
| Nc1cc(NCc2ccccn2)c2sc(-c3ccn[nH]3)cc2n1 [Compound 59, 2-(1H-pyrazol-5-yl)-N^7-(pyridin-2-ylmethyl)thieno[3,2-b]pyridine-5,7-diamine] | > 100000 nM | 0.1 µM |
| Cn1ccc(CNc2cc(N)nc3cc(-c4ccn[nH]4)sc23)n1 [Compound 60, N^7-(1-methyl-1H-pyrazol-3-yl)methyl-2-(1H-pyrazol-5-yl)thieno[3,2-b]pyridine-5,7-diamine] | > 100000 nM | 0.1 µM |
| Nc1cc(NC2CCOC2)c2sc(-c3ccn[nH]3)cc2n1 (centres unmarked) [Compound 61, 2-(1H-pyrazol-5-yl)-N^7-(tetrahydrofuran-3-yl)thieno[3,2-b]pyridine-5,7-diamine] | > 100000 nM | 0.1 µM |
| CC1CN(CCNc2cc(N)nc3cc(-c4ccn[nH]4)sc23)CC(C)O1 (centres unmarked) [Compound 62] | > 100000 nM | 0.06 µM |
| Cn1cnc(CNc2cc(N)nc3cc(-c4ccn[nH]4)sc23)c1 [Compound 63, N^7-(1-methyl-1H-imidazol-4-yl)methyl-2-(1H-pyrazol-5-yl)thieno[3,2-b]pyridine-5,7-diamine] | > 100000 nM | 0.07 µM |
| Nc1cc(NCCNC(=O)C2CC2)c2sc(-c3ccn[nH]3)cc2n1 [Compound 64] | > 100000 nM | 0.05 µM |
| CC(=O)N(C)CCNc1cc(N)nc2cc(-c3ccn[nH]3)sc12 [Compound 73, N-(2-((5-amino-2-(1H-pyrazol-5-yl)thieno[3,2-b]pyridin-7-yl)amino)ethyl)-N-methylethanamide] | > 100000 nM | 0.18 µM |
| CC(=O)N(C)CCCNc1cc(N)nc2cc(-c3ccn[nH]3)sc12 [Compound 74, N-(3-((5-amino-2-(1H-pyrazol-5-yl)thieno[3,2-b]pyridin-7-yl)amino)propyl)-N-methylacetamide] | > 100000 nM | 0.26 µM |
| CN(CCNc1cc(N)nc2cc(-c3ccn[nH]3)sc12)C(=O)C1CC1 [Compound 75, N-(2-((5-amino-2-(1H-pyrazol-5-yl)thieno[3,2-b]pyridin-7-yl)amino)ethyl)-N-methylcyclopropionamide] | > 100000 nM | 0.11 µM |
| CN(CCCNc1cc(N)nc2cc(-c3ccn[nH]3)sc12)C(=O)C1CC1 [Compound 76, N-(3-((5-amino-2-(1H-pyrazol-5-yl)thieno[3,2-b]pyridin-7-yl)amino)propyl)-N-methylcyclopropane formamide] | > 100000 nM | 0.27 µM |
| CCC(=O)N(C)CCNc1cc(N)nc2cc(-c3ccn[nH]3)sc12 [Compound 88, N-(2-((5-amino-2-(1H-pyrazol-5-yl)thieno[3,2-b]pyridin-7-yl)amino)ethyl)-N-methylpropionamide] | > 100000 nM | 0.04 µM |
| CN1CCC(Nc2cc(N)nc3cc(-c4ccn[nH]4)sc23)CC1 [Compound 89, N^7-(1-methylpiperidin-4-yl)-2-(1H-pyrazol-5-yl)thieno[3,2-b]pyridine-5,7-diamine] | > 100000 nM | 0.16 µM |
| Nc1cc(NCCCO)c2sc(-c3ccncc3)cc2n1 [Compound 90, 3-((5-amino-2-(pyridin-4-yl)thieno[3,2-b]pyridin-7-yl)amino)-1-propanol] | > 100000 nM | 6.03 µM |
